Data taken from US9096853B2, “Modified siRNA molecules incorporating 5-fluoro-2′-deoxyuridine residues to enhance cytotoxicity” (U.S. Department of Veterans Affairs, priority 2012, dated 2015).
[5FU] = 5-fluorouracil base, with d sugar it is 5-fluoro-2'-deoxyuridine (FdU); d = 2'-deoxy (DNA); r = 2'-OH (RNA)

What was measured:
[1] = tested on: human colon cancer RKO cell line; test: Cell proliferation assay (WST-1) in RKO cells; format: cell-based; settings: for IC50: 6 hr exposure then 96 hr growth, mean ± S.D., at least 3 experiments
Experimental: RKO cells were plated in 96-well plates at a density of 800 cells/well. On the following day, cells were incubated with ssiRNA/LF2000 complexes for 6 hr, after which time, the growth medium was replaced, and cells were grown for an additional 96 hr. Similarly, RKO cells were treated with FdU (#F0503, Sigma) for 6 hr followed by medium replacement and then allowed to grow for an additional 96 hr. Cell proliferation/viability was quantified by the WST-1 assay (Roche; Indianapolis, Ind.).

[2] = tested on: p53, Fas, cleaved PARP, γH2AX, p-ATM; test: Immunoblot of DNA damage and apoptosis signaling proteins, time course; format: cell-based, human; settings: RKO cells, ssiRNA 10 nM, 0-72 hr
Experimental: FIG. 5 illustrates time-dependent effects of FdU-containing ssiRNAs on protein expression. RKO cells were transfected with various TS6 ssiRNAs (10 nM). After 6 hr, the medium was replaced, and cells were harvested for immunoblot blot analysis at the following times: before39 transfection (pre) and 0, 24, 48, and 72 hr after transfection. Images shown are representative blots from at least 4 different experiments; and
(§1) Protein concentrations of cell lysates were determined using the DC Protein Assay (Bio-Rad; Hercules, Calif.). Equal amounts of protein (30 μg) from each cell lysate were resolved on SDS-PAGE using the method of Laemmli (Reference 19) and transferred onto 0.45 μm nitrocellulose membranes (Bio-Rad). Membranes were blocked and incubated overnight with primary antibodies at 4° C. The following antibodies were used in the experiments: anti-TS (Clone 4H4B1; Invitrogen), anti-TS (#5449; Cell Signaling; San Francisco, Calif.), anti-p21 Waf1/Cip1 (#2947; Cell Signaling), anti-p53 (#sc-126; Santa Cruz Biotechnology; Santa Cruz, Calif.), anti-PARP (#9542; Cell Signaling), anti-Fas (#4233; Cell Signaling), anti-phospho-histone H2A.X (Ser139) (#2577; Cell Signaling), anti-histone H2A.X (#7631; Cell Signaling), anti-phospho-ATM (pS1981; EPITOMICS Inc.; Burlingame, Calif.), anti-ATM (#A1106; Sigma), and anti-α-tubulin (EMD Biosciences; San Diego, Calif.). After multiple TBST washes (1×TBS, 0.1% Tween-20), membranes were incubated with corresponding horseradish peroxidase-conjugated secondary antibodies (Bio-Rad) for 1 hr at room temperature. Proteins were detected by the enhanced chemiluminescence method (SuperSignal West Pico substrate; Pierce; Rockford, Ill.). Quantitation of signal intensities was performed by densitometry on a Xerox scanner using NIH IMAGEJ software.

[3] = tested on: human colon cancer RKO cell line; test: Clonogenic assay in RKO cells; format: cell-based; settings: for IC50: 6 hr exposure, colonies counted after 8 days, mean ± S.D., at least 3 experiments
Experimental: RKO cells were plated in 6-well plates at a density of 600 cells/well. On the following day, cells were transfected with ssiRNA/LF2000 complexes for 6 hr after which time, the growth medium was replaced. Similarly, FdU was added to wells for 6 hr followed by medium replacement. After 8 days, cell colonies were fixed with Trypan blue solution (75% methanol/25% acetic acid/0.25% trypan blue), washed, and air-dried before counting colonies >50 cells.

[4] = tested on: GC3/TK− cells; test: Cell proliferation (WST-1) in thymidine kinase-deficient GC3/TK− cells; format: cell-based, human; settings: 6 hr transfection, additional 5 days
Experimental: FIGS. 2A-B illustrate the effect of TK knockdown on the cytotoxicity of the FdU-modified ssiRNA. (A) RKO cells were transfected with 1 nM TK siRNA (lanes 3 and 4) or Mis-dU/dA (lane 5). After 6 hr, the medium was replaced with fresh medium. On the following day, cells were transfected with TS6-FdU/dA ssiRNA (1 nM) for 6 hr (lanes 2, 4, and 5) after which time, cells were harvested for immunoblot analysis. RKO cells were treated with 5-fluorouracil (5 nM) for 6 hr before harvesting (lane 6). (B) GC3/TK− cells were transfected with various concentrations of TS6-dU/dA or TS6-FdU/dA ssiRNA. After 6 hr, the medium was replaced and after an additional 5 days, cell proliferation was determined with the WST-1 assay;
The human colon cancer RKO cell line, originally obtained from ATCC, has been previously well-characterized and was maintained in RPMI-1640 (Invitrogen; Carlsbad, Calif.) with 10% (v/v) dialyzed fetal bovine serum at 37° C. in a humidified incubator with 5% CO2 (Reference 11). The thymidine kinase-deficient GC3/TK− cells were a gift from Dr. Janet Houghton (Reference 18). Cells were routinely authenticated by morphology and growth curve analysis. […]
RKO cells were plated in 96-well plates at a density of 800 cells/well. […] Cell proliferation/viability was quantified by the WST-1 assay (Roche; Indianapolis, Ind.).

[5] = tested on: RKO cells; test: Flow cytometry, FITC Annexin V apoptosis detection; format: cell-based, human; settings: ssiRNA 10 nM, after 72 hr
Experimental: FIGS. 6A-B illustrate induction of apoptosis after transfection of FdU-containing ssiRNAs. RKO cells were transfected with various TS6 ssiRNAs (10 nM). After 6 hr, the medium was replaced with fresh medium. After 72 hr, cells were harvested, fixed, stained, and analyzed by flow cytometry as described in the Materials and Methods section. (A) Representative cytometry images from one experiment. Lower left quadrant represents viable cells; lower right quadrant, early apoptotic cells; upper right quadrant, late apoptotic cells; upper left quadrant, necrotic cells. (B) Percentage values represent the mean±S.D. from 3 separate experiments.
RKO cells were plated in T-25 cm^2 flasks at a density of 2.5×10^5/flask. Cells were transfected on the following day with siRNA/LF2000 complexes for 6 hr. After medium replacement and additional incubation for 48 and 72 hr, respectively, cells were harvested, washed twice with PBS, resuspended in 1× binding buffer at a concentration of 1×10^6 cells/mL according to the manufacturer's protocol, stained with FITC Annexin V Apoptosis Detection Kit (BD Biosciences; San Jose, Calif.), and analyzed on the BD Accuri C6 Flow Cytometer (BD Accuri Cytometers Inc.; Ann Arbor, Mich.) at the UPCI Flow Cytometry Facility.

[6] = tested on: thymidylate synthase (TS) protein; test: Immunoblot analysis of TS protein (free and ITC-bound), Odyssey quantitation; format: cell-based, human; settings: RKO cells, ssiRNA 1 nM, 48 hr; for Free TS (%) / ITC-Bound TS (%): normalized to free TS protein in mock-transfected cells (LF2000) set to 100%, mean ± S.D., 6 experiments
Experimental: (§2) FIGS. 1A-B illustrate the effect of FdU incorporation in ssiRNA on TS protein expression. RKO cells were transfected with TS6 ssiRNAs (1 nM) containing various 3′-overhangs. After 6 hr, the medium was replaced. After an additional 48 hr, cells were harvested and processed for immunoblot and qPCR analysis as described in the Materials and Methods section. (A) Representative blot from 4 experiments. (B) All qPCR values represent the mean±S.D. from at least 3 separate experiments performed in triplicate. The normalized amount of TS mRNA from mock-transfected cells (LF2000) was set to 1.0 and all other values compared against that value. ITC, inhibitory ternary complex;
Cells were plated at a density of 1.5×10^5 cells/well. On the following day, ssiRNAs were complexed with Lipofectamine 2000 (LF2000, Invitrogen) in serum-free RPMI-1640 medium and added to the plated cells. After 48 hr, cells were rinsed with PBS and scraped in cell lysis buffer (10 mM Tris pH7.4, 150 mM NaCl, 1 mM EDTA, 1% IGEPAL, 0.5% sodium deoxycholate, and 0.1% SDS) containing freshly added Protease Inhibitor Cocktail (Sigma; St. Louis, Mo.), 1 mM phenylmethylsulfonyl fluoride, and phosphatase inhibitors (Sigma). Lysates were sonicated and then centrifuged at 14,000 rpm for 30 min at 4° C. to remove debris. Cell lysates were stored at −80° C. for future use. For mRNA analysis, total RNA was extracted using Trizol (Invitrogen) and stored at −80° C. for future use.
as §1
Immunoblots were prepared as described above. After incubation with anti-TS polyclonal antibody, membranes were blocked with the Odyssey blocking buffer and incubated with IRDye 800CW goat anti-rabbit antibody (LI-COR Biosciences; Lincoln, Nebr., USA) according to the manufacturer instructions. The fluorescent signal was detected and quantified using the Odyssey infrared imaging system (LI-COR).

[7] = tested on: thymidylate synthase (TS) protein; test: as above; format: cell-based, human; settings: RKO cells; for formation of the ITC immediately after transfection: ssiRNA 10 nM, 0 hr after 6 hr transfection
[8] = tested on: TS mRNA; test: Real time qRT-PCR analysis of TS mRNA; format: cell-based, human; settings: RKO cells, ssiRNA 1 nM, 48 hr
Experimental: as §2
Cells were plated at a density of 1.5×10^5 cells/well. […]
The first-strand cDNA was synthesized using 1.0 μg total RNA and the iScript™ Reverse Transcription Supermix for real-time quantitative polymerase chain reaction (qRT-PCR) (Bio-Rad; Hercules, Calif.). PCR was performed in triplicate using the SsoFast™ Probes Supermix (Bio-Rad) in a final reaction volume of 10 μL with gene-specific primer/probe sets, and a standard thermal cycling procedure (40 cycles) on a Bio-Rad CFX96™ Real-Time PCR System. mRNA levels of TS and 18S RNA were assessed using the TaqMan Gene Expression real-time PCR assays (Applied Biosystems; assay ID: Hs00426586_m1 and Hs03928990_g1, respectively). Results were expressed as the threshold cycle (Ct). […]

## TS6-FdU/dA: TS-targeted ssiRNA, all 3′-end overhang dU of sense strand replaced with FdU (5 FdU); SEQ ID NO: 9 and 10 (chain 1 GGAUAUUGUCAGUCUUUAGGUUUUU; chain 2 CCUAAAGACUGACAAUAUCCAAAAA; chain 1: sugars from the 5' end r20 d5, [5FU] at 21, 22, 23, 24, 25, backbone not given here; chain 2: sugars from the 5' end r20 d5, backbone not given here)
[1]
  enhancement of IC50 versus non-targeted mismatch-FdU/dA, growth assay: 3.5 fold
  IC50: 0.81 nM
[2]
  biomarkers of DNA damage, γH2AX and p-ATM: strongly induced
  cleaved PARP, a marker of apoptosis: elevated
  p53 levels: rapidly induced
[3]
  lower IC50 versus non-targeted mismatch-FdU/dA, clonogenic assay: 10 fold
  IC50: 0.17 nM
[4]
  IC50: 45.9 ± 18.6 nM
[5]
  early and late apoptotic cells: significant increase
[6]
  Free TS (%): 29.8 ± 12.0%
  ITC-Bound TS (%): 22.0 ± 11.8%
[7]; TK siRNA 1 nM, next day TS6-FdU/dA 1 nM for 6 hr
  formation of the ITC after knockdown of thymidine kinase: prevented formation of the ITC
[7]
  formation of the ITC immediately after transfection: formation of the ITC is observed

## Mis-FdU/dA: control, non-targeted ssiRNA containing 5 FdU residues on the sense strand; SEQ ID NO: 21 and 22 (chain 1 GGAUACUGCCAAUCUCUAGGUUUUU; chain 2 CCUAGAGAUUGGCAGUAUCCAAAAA; chain 1: sugars from the 5' end r20 d5, [5FU] at 21, 22, 23, 24, 25, backbone not given here; chain 2: sugars from the 5' end r20 d5, backbone not given here)
[1]
  IC50: 2.88 nM
[2]
  biomarkers of DNA damage, γH2AX and p-ATM: little to no effect
[3]
  IC50: 1.75 nM
[6]
  effect on TS protein expression (in words): absolutely no inhibitory effect
  Free TS (%): 89.5 ± 26.2%
  ITC-Bound TS (%): 45.6 ± 21.1%
[7]
  formation of the ITC immediately after transfection: formation of the ITC is observed
[8]
  effect on TS mRNA expression (in words): absolutely no inhibitory effect
